Experimental data published in patent US5428038A, “Benzopyranones, a method for producing them and uses therefor” (Dr. Willmar Schwabe GmbH & Co., priority 1991, dated 1995).

Tested on: NMDA-induced death
Assay: NMDA test (25 mg/kg i.v.), prevention of NMDA-induced death (neuroprotective efficacy)
Type: in vivo, male NMRI mice
Conditions: Mus musculus, po, NMDA 25 mg/kg i.v.; for responders at 50 mg/kg: 50 mg/kg p.o. 1 h before test; for responders at 50 mg/kg / responders at 100 mg/kg / responders at 25 mg/kg / responders at 5 mg/kg: read-out: Protective action (percentage of surviving animals); for responders at 100 mg/kg: 100 mg/kg p.o. 1 h before test; for responders at 25 mg/kg: 25 mg/kg p.o. 1 h before test; for responders at 5 mg/kg: 5 mg/kg p.o. 1 h before test; for ED50: 1 h, dose protecting 50% of animals against NMDA-induced death one hour after application
Protocol: In order to determine the neuroprotective and anticonvulsive activity of the compounds in accordance with the invention of the general formula I, two slightly different methods were employed as follows: […]
1. In order to determine the neuroprotective efficacy NMDA at a rate of 25 mg/kg/10 ml was administered intravenously to male NMRI mice with a body weight of 20 to 25 g. As a consequence of this application the animals suffer clonic and partly tonic convulsions, which lead to death. As a criterion for the efficacy of the investigated compounds prevention of death is used.
All animals used in the investigations had free access to food and water prior to the experiments. The test and reference substances were all administered as a suspension in 0.2% agar or water, partly by the intermediary of solution promoters such as for instance PEG-400, perorally using an esophageal probe. Control animals received the same volumes of the solvent with optional solution promoters. One hour after the application of the substance NMDA was administered intravenously and the animals observed for the occurrence of convulsions.
In table 1 the results of the tests (NMDA 25 mg i.v.) performed in accordance with method 1 are compiled with dosages of 5-100 mg of the compounds in accordance with the invention per kg of body weight as compared with known NMDA-antagonists. As a percentage efficacy the percentage of surviving animals is used.
The determination of the ED50 values was performed in accordance with the method described in Lichtfield and Wilcoxon, J. Pharmacol. exp. Therapeut. 96, 99 (1949) in each case with 4 to 5 groups of 10 animals per dosage rate.

| Compound | responders at 25 mg/kg | responders at 5 mg/kg | other results |
| --- | --- | --- | --- |
| COc1cc2oc(=O)ccc2cc1OCC(O)CN1CCN(c2cccc(C(F)(F)F)c2)CC1 (racemic) [Example 20, (±)-6-{2-hydroxy-3-[4-(3-trifluoromethylphenyl)-1-piperazinyl]propoxy}-7-methoxy-2H-1-benzopyran-2-one] |  |  | responders at 50 mg/kg: 87.5% |
| COc1cc2ccc(=O)oc2cc1OCC(O)CN1CCN(c2cccc(C(F)(F)F)c2)CC1 (racemic) [Example 21, (±)-7-{2-hydroxy-3-[4-(3-trifluoromethylphenyl)-1-piperazinyl]propoxy}-6-methoxy-2H-1-benzopyran-2-one] |  |  | responders at 50 mg/kg: 62.5% |
| COc1cc2oc(=O)ccc2cc1OCC(O)CN1CCC(c2ccccc2)CC1 (racemic) [Example 22, (±)-6-[2-hydroxy-3-(4-phenyl-1-piperidinyl)-propoxy]-7-methoxy-2H-1-benzopyran-2-one] |  |  | responders at 100 mg/kg: 37.5% |
| COc1cc2oc(=O)ccc2cc1OCC(O)CN1CCC(O)(c2ccccc2)CC1 (racemic) [Example 24, (±)-6-[2-hydroxy-3-(4-hydroxy-4-phenyl-1-piperidinyl)propoxy]-7-methoxy-2H-1-benzopyran-2-one] |  |  | responders at 100 mg/kg: 37.5% |
| COc1cc2oc(=O)ccc2cc1OCCCN1CCN(c2ccccc2)CC1 [Example 1, 7-methoxy-6-[3-(4-phenyl-1-piperazinyl)propoxy]-2H-1-benzopyran-2-one] | 100% |  |  |
| COc1cc2ccc(=O)oc2cc1OCCCN1CCN(c2ccccc2)CC1 [Example 2, 6-methoxy-7-[3-(4-phenyl-1-piperazinyl)propoxy]-2H-1-benzopyran-2-one] | 100% |  |  |
| CCOc1cc2oc(=O)ccc2cc1OCCCN1CCN(c2ccccc2)CC1 [Example 3, 7-ethoxy-6-[3-(4-phenyl-1-piperazinyl)propoxy]-2H-1-benzopyran-2-one] |  | 62.5% |  |
| O=c1ccc2cc(OC3CCCC3)c(OCCCN3CCN(c4ccccc4)CC3)cc2o1 [Example 5, 6-(cyclopentyloxy)-7-[3-(4-phenyl-1-piperazinyl)propoxy]-2H-1-benzopyran-2-one] | 87.5% |  |  |
| CCOc1cc2oc(=O)ccc2cc1OCCCN1CCN(c2ccccc2OC)CC1 [Example 7, 7-ethoxy-6-{3-[4-(2-methoxyphenyl)-1-piperazinyl]propoxy}-2H-1-benzopyran-2-one] |  | 100% | ED50: 0.9 mg/kg |
| COc1cc2oc(=O)ccc2cc1OCCCN1CCC(c2ccccc2)CC1 [Example 9, 7-methoxy-6-[3-(4-phenyl-1-piperidinyl)propoxy]-2H-1-benzopyran-2-one] | 50% |  |  |
| CCOc1cc2ccc(=O)oc2cc1OCCCN1CCC(c2ccccc2)CC1 [Example 11, 6-ethoxy-7-[3-(4-phenyl-1-piperidinyl)propoxy]-2H-1-benzopyran-2-one] | 62.5% |  |  |
| O=c1ccc2cc(OC3CCCC3)c(OCCCN3CCC(c4ccccc4)CC3)cc2o1 [Example 13, 6-(cyclopentyloxy)-7-[3-(4-phenyl-1-piperidinyl)propoxy]-2H-1-benzopyran-2-one] | 100% |  |  |
| COc1cc2oc(=O)c(C)c(C)c2cc1OCCCN1CCC(c2ccccc2)CC1 [Example 29, 7-methoxy-3,4-dimethyl-6-[3-(4-phenyl-1-piperidinyl)propoxy]-2H-1-benzopyran-2-one] | 87.5% |  |  |
| COc1cc2oc(=O)c(C)c(C)c2cc1OCCCN1CCN(Cc2ccc(Cl)cc2)CC1 [Example 30, 6-{3-[4-(4-chlorophenylmethyl)-1-piperazinyl]-propoxy}-7-methoxy-3,4-dimethyl-2H-1-benzopyran-2-one] |  |  | responders at 100 mg/kg: 37.5% |
| COc1cc2oc(=O)cc(C(F)(F)F)c2cc1OCCCN1CCN(c2ccccc2)CC1 [Example 31] | 87.5% |  |  |
| COc1cc2oc(=O)cc(C(F)(F)F)c2cc1OCCCN1CCC(c2ccccc2)CC1 [Example 32, 7-methoxy-6-[3-(4-phenyl-1-piperidinyl)propoxy]-4-(trifluoromethyl)-2H-1-benzopyran-2-one] | 62.5% |  |  |
| CCCc1cc(=O)oc2cc(OC)c(OCCCN3CCN(c4ccccc4)CC3)cc12 [Example 33] | 100% |  | ED50: 4.4 mg/kg |

| Compound | responders at 25 mg/kg | responders at 5 mg/kg | other results |
| --- | --- | --- | --- |
| CCCc1cc(=O)oc2cc(OC)c(OCCCN3CCC(c4ccccc4)CC3)cc12 [Example 34, 7-methoxy-6-[3-(4-phenyl-1-piperidinyl)propoxy]-4-propyl-2H-1-benzopyran-2-one] | 75% |  |  |
| COc1cc2oc(=O)cc(C(C)C)c2cc1OCCCN1CCN(c2ccccc2)CC1 [Example 35, 7-methoxy-4-(1-methylethyl)-6-[3-(4-phenyl-1-piperazinyl)propoxy]-2H-1-benzopyran-2-one] |  | 75% |  |
| COc1cc2oc(=O)cc(C(C)C)c2cc1OCCCN1CCC(c2ccccc2)CC1 [Example 36, 7-methoxy-4-(1-methylethyl)-6-[3-(4-phenyl-1-piperidinyl)propoxy]-2H-1-benzopyran-2-one] | 50% |  |  |
| CCCCc1c(C)c2cc(OCCCN3CCN(c4ccccc4)CC3)c(OC)cc2oc1=O [Example 37, 3-butyl-7-methoxy-4-methyl-6-[3-(4-phenyl-1-piperazinyl)propoxy]-2H-1-benzopyran-2-one] | 100% |  |  |
| CCCCc1c(C)c2cc(OCCCN3CCC(c4ccccc4)CC3)c(OC)cc2oc1=O [Example 38, 3-butyl-7-methoxy-4-methyl-6-[3-(4-phenyl-1-piperidinyl)propoxy]-2H-1-benzopyran-2-one] | 87.5% |  |  |
| COc1cc2oc(=O)c(-c3ccccc3)c(C)c2cc1OCCCN1CCN(c2ccccc2)CC1 [Example 41, 7-methoxy-4-methyl-3-phenyl-6-[3-(4-phenyl-1-piperazinyl)propoxy]-2H-1-benzopyran-2-one] |  | 87.5% | ED50: 4.8 mg/kg |
| COc1cc2oc(=O)c3c(c2cc1OCCN1CCN(c2ccccc2)CC1)CCC3 [Example 44, 2,3-dihydro-7-methoxy-8-[2-(4-phenyl-1-piperazinyl)ethoxy]cyclopenta[c][1]benzopyran-4(1H)-one] | 87.5% |  | ED50: 4.8 mg/kg |
| COc1cc2oc(=O)c3c(c2cc1OCCCCCN1CCN(c2ccccc2)CC1)CCC3 [Example 47, 2,3-dihydro-7-methoxy-8-[5-(4-phenyl-1-piperazinyl)pentyloxy]cyclopenta[c][1]benzopyran-4(1H)-one] |  | 62.5% |  |
| COc1cc2oc(=O)c3c(c2cc1OCCCCN1CCC(c2ccccc2)CC1)CCC3 [Example 50, 2,3-dihydro-7-methoxy-8-[4-(4-phenyl-1-piperidinyl)butyloxy]cyclopenta[c][1]benzopyran-4(1H)-one] | 87.5% |  |  |
| COc1cc2oc(=O)c3c(c2cc1OCCCCCN1CCC(c2ccccc2)CC1)CCC3 [Example 51, 2,3-dihydro-7-methoxy-8-[5-(4-phenyl-1-piperidinyl)pentyloxy]cyclopenta[c][1]benzopyran-4(1H)-one] |  | 12.5% |  |
| COc1cc2oc(=O)c3c(c2cc1OCCCN1CCN(c2cccc(C)c2C)CC1)CCC3 [Example 53, 8-{3-[4-(2,3-dimethylphenyl)-1-piperazinyl]propoxy}-2,3-dihydro-7-methoxy-cyclopenta[c][1]benzopyran-4(1H)-one] | 50% |  |  |
| COc1cc2oc(=O)c3c(c2cc1OCCCN1CCN(c2ccccc2OC)CC1)CCC3 [Example 54, 2,3-dihydro-7-methoxy-8-{3-[4-(2-methoxyphenyl)-1-piperazinyl]propoxy}cyclopenta[c][1]benzopyran-4(1H)-one] |  | 100% | ED50: 0.4 mg/kg |
| COc1cccc(N2CCN(CCCOc3cc4c5c(c(=O)oc4cc3OC)CCC5)CC2)c1 [Example 55, 2,3-dihydro-7-methoxy-8-{3-[4-(3-methoxyphenyl)-1-piperazinyl]propoxy}cyclopenta[c][1]benzopyran-4(1H)-one] |  | 100% | ED50: 1.1 mg/kg |
| COc1ccc(N2CCN(CCCOc3cc4c5c(c(=O)oc4cc3OC)CCC5)CC2)cc1 [Example 56, 2,3-dihydro-7-methoxy-8-{3-[4-(4-methoxyphenyl)-1-piperazinyl]propoxy}cyclopenta[c][1]benzopyran-4(1H)-one] |  | 87.5% | ED50: 2.6 mg/kg |
| CCOc1ccccc1N1CCN(CCCOc2cc3c4c(c(=O)oc3cc2OC)CCC4)CC1 [Example 57, 8-{3-[4-(2-ethoxyphenyl)-1-piperazinyl]propoxy}-2,3-dihydro-7-methoxy-cyclopenta[c][1]benzopyran-4(1H)-one] |  | 100% |  |
| COc1cc2oc(=O)c3c(c2cc1OCCCN1CCN(c2ccccc2Cl)CC1)CCC3 [Example 58, 8-{3-[4-(2-chlorophenyl)-1-piperazinyl]propoxy}-2,3-dihydro-7-methoxy-cyclopenta[c][1]benzopyran-4(1H)-one] |  | 100% | ED50: 1.8 mg/kg |
